Assay results reported in article PMC6678097, “Machilin A Inhibits Tumor Growth and Macrophage M2 Polarization Through the Reduction of Lactic Acid” (Cancers, 2019).

Legend:
LDHA [1] = experiment: LDH activity and LDHA expression in LLC tumor tissue lysates; type: in vivo, mice
Protocol: (§1) A purification of recombinant LDHA was performed as described previously. LDH activity was determined by measuring the decrease of absorbance at 340 nm due to the oxidation of NADH in 20 mM HEPES-K^+, 0.05% bovine serum albumin (BSA), 20 μM NADH, and 2 mM pyruvate (Sigma-Aldrich, St. Louis, MO, USA) at a pH of 7.2 using a spectrofluorometer (Spectramax M2, Molecular Devices, San Jose, CA, USA; excitation 340 nm; emission 460 nm), as described previously. Ten nanograms of recombinant LDHA protein were used in the in vitro LDH activity assay. One microgram of total protein from cell or tissue lysates was used for intracellular or in vivo LDH assays.
LLC and CT26 cells were suspended separately in PBS (5 × 10^5 cells/100 µL PBS) and inoculated in subcutaneously on the back of 7-week-old C57BL/6 mice and BALB/c mice respectively (Orient Bio Inc., Seongnam, Korea; n = 7). One day after the inoculation with tumor cells, mice of the control group (n = 7) were intraperitoneally administrated 100 µL of PBS per day for 18 days. Each of the MA-treated mice were intraperitoneally administrated 0.02, 0.2, or 1 mg MA, respectively, in 100 µL PBS per 20 g body weight, each day for 18 days. […] Length (l) and width (w) of each tumor were measured using a caliper, and the respective volume (V) was calculated according to the formula V = [(l × w^2)/2]. […]

LDHA [2] = biological target: T1, LDHA (Homo sapiens, UniProt P00338); experiment: Intracellular LDH activity in lysates of MA-treated cancer cells; type: cell-based; parameters: One microgram of total protein from cell or tissue lysates was used for intracellular or in vivo LDH assays; endogenous in cells; host or cells: WiDr, DLD-1, RKO, HT29, MCF7, Huh-7, HepG2, Hep3B, HCC-95, NCI-H1793; conditions: for IC50: normoxic
Protocol: as §1

Hep3B liver cancer cells = experiment: Colony formation assay; type: cell-based, human; conditions: three weeks
Protocol: (§2) Base agar (0.6%) was placed at the bottom of the 6-well culture plate. After 30 min at room temperature, top agar (0.4%) mixed with HT29 (1 × 10^4 cells) or Hep3B (1 × 10^4 cells) cells was added to the base agar. HT29 and Hep3B cells were incubated at 37 °C and 5% CO2 for three weeks. The colonies were stained using 0.005% crystal violet for 1 h after which they were photographed and counted.

HT29 colon cancer cells = experiment: Colony formation assay; type: cell-based, human; conditions: three weeks
Protocol: as §2

[3] = system: RAW264.7 macrophage cells; experiment: Viability of macrophage cells, MTT; type: cell-based; conditions: direct treatment, 24 h
Protocol: (§3) Figure S10. The viabilities of HUVECs and RAW264.7 cells on MA. (A) HUVECs were treated with indicated concentration of machilin A for 24 h. The viabilities of cells were evaluated by MTT assay.
(§4) (B ) HUVECs seeded to the Matrigel-coated wells treated with machilin A for 24 h. ( C) Raw 264.7 macrophage cells were treated with indicated concentration of machilin A for 24 h. The viabilities of cells were evaluated by MTT assay.
(§5) (1 picture or pasted object on this page, not shown here)

LDHA [4] = biological target: T1, LDHA; experiment: Surface plasmon resonance (SPR) biosensor analysis of LDHA binding; parameters: Full-length LDHA (residues 1–331) was obtained from cDNA by polymerase chain reaction (PCR); inferred from pET-28a vector and Ni-NTA purification; made in house; host or cells: E. coli BL21 (DE3); conditions: 25 °C, read-out: apparent KD of binding to LDHA
Protocol: The apparent dissociation constants (KD) between LDHA and Machilin A were measured using a Biacore T100 biosensor (GE Healthcare, Chicago, IL, USA). […] A total of 150 μL LDHA (50 μg/mL) in 10 mM sodium acetate (pH 5.5) was coupled via injection for 15 min at 10 μL/min, followed by injection of 1 M ethanolamine to deactivate the residual amines. To measure kinetics at 25 °C, chemical compounds with concentrations ranging from 500 to 62 μM were prepared by dilution in running buffer (10 mM HEPES, 150 mM NaCl, 0.005% v/v surfactant P20, and 1% DMSO) at a pH of 7.4. The immobilized ligand was regenerated by injecting 10 μL of 50 mM NaOH at a rate of 10 μL/min during the cycles.

CT26 tumors = experiment: Tumor allograft model, CT26 cells; type: in vivo, BALB/c mice; conditions: 1, 10, or 50 µg/g body weight intraperitoneally daily
Protocol: LLC and CT26 cells were suspended separately in PBS (5 × 10^5 cells/100 µL PBS) and inoculated in subcutaneously on the back of 7-week-old C57BL/6 mice and BALB/c mice respectively (Orient Bio Inc., Seongnam, Korea; n = 7). One day after the inoculation with tumor cells, mice of the control group (n = 7) were intraperitoneally administrated 100 µL of PBS per day for 18 days. Each of the MA-treated mice were intraperitoneally administrated 0.02, 0.2, or 1 mg MA, respectively, in 100 µL PBS per 20 g body weight, each day for 18 days. All mice were euthanized 19 days after inoculation with the tumor cells, and the tumors were excised and weighed. Length (l) and width (w) of each tumor were measured using a caliper, and the respective volume (V) was calculated according to the formula V = [(l × w^2)/2]. Tumors were immediately removed from euthanized mice and prepared for histological examinations. To test liver and kidney toxicity of MA, at the end of the in vivo allograft experiment blood was collected from each mouse and serum was separated. Biochemical analyses of aspartate aminotransferase (AST), alanine aminotransferase (ALT), creatinine, and blood urea nitrogen (BUN) were performed using a commercial service (Green Cross Co., Yongin, Korea). […]

[5] = biological target: T2, purified recombinant LDHA (Homo sapiens, UniProt P00338); experiment: In vitro LDH activity assay with purified recombinant LDHA; type: biochemical
T2 construct: made in house
Protocol: as §1

phospholipase Cγ1 = system: phospholipase Cγ1; parameters: method as in PMID 15554262; conditions: cited from earlier work
HUVECs = experiment: Growth (MTT) and tube formation of endothelial cells, direct treatment; type: cell-based, human; conditions: 24 h
Protocol: as §3, §4, §5

What does the source list for `C[C@H](Cc1ccc2c(c1)OCO2)[C@@H](C)Cc1ccc2c(c1)OCO2` [MA, bis(3,4-methylenedioxy)-8,8’-lignan]?
activity of LDH in LLC cell allografts (LDHA [1]; tumor tissue lysates): clearly inhibited; expression of LDHA in LLC cell allografts (LDHA [1]; western blot of tumor tissue): did not affect; IC50 (LDHA [2]; DLD-1 cells): 129 ± 24.8 µM; IC50 (LDHA [2]; HCC-95 cells): 112 ± 10.1 µM; increase of LDHA activity in hypoxic condition (LDHA [2]; HT29, machilin A 30 μM, hypoxia): significantly reduced; IC50 (LDHA [2]; HT29 cells): 48.4 ± 4.33 µM; IC50 (LDHA [2]; Hep3B cells): 48.3 ± 4.13 µM; IC50 (LDHA [2]; HepG2 cells): 101 ± 40.5 µM; IC50 (LDHA [2]; Huh7 cells): 85.1 ± 20.9 µM; IC50 (LDHA [2]; MCF-7 cells): 61.2 ± 3.02 µM; IC50 (LDHA [2]; NCI-H1793 cells): 64 ± 5.61 µM; IC50 (LDHA [2]; RKO cells): 73.7 ± 20.7 µM; IC50 (LDHA [2]; WiDr cells): 61.9 ± 8.02 µM; number of surviving colonies (Hep3B liver cancer cells): significantly reduced; number of surviving colonies (HT29 colon cancer cells): significantly reduced; growth of RAW264.7 macrophage cells [3]: did not directly inhibit; Kd (LDHA [4]): 29 µM; volume, weight, and size of tumors (CT26 tumors): significantly reduced; mode of inhibition of LDHA activity ([5]; data not shown): competitive inhibition; IC50 ([5]; purified recombinant LDHA, read-out: inhibitory concentration (IC50) for LDHA activity): 84 µM; effect on phospholipase Cγ1 (phospholipase Cγ1): inhibiting phospholipase Cγ1; growth and tube formation of endothelial cells (HUVECs): did not directly inhibit
